From ChEMBL document CHEMBL1201862, “PubChem BioAssay data set” (2004)
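A five-concentration, 48-hour dose response in 96-well plates underlies each endpoint, interpolated linearly between surrounding concentrations. GI50 is the concentration that inhibits growth by half.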 Active and inactive are the calls of the source. Cut-off read from the data, not from the text of the source: active = GI50 up to about 1.1 µM and inactive = higher.

Assays:
Test in all cases: inhibition of tumour cell growth, NCI panel, 48 h
[1] = test system: HOP-62
[2] = test system: OVCAR-3
[3] = test system: SNB-19
[4] = test system: LOX IMVI
[5] = test system: T47D
[6] = test system: K562
[7] = test system: DU-145
[8] = test system: A549
[9] = test system: SF-539
[10] = test system: UACC-257
[11] = test system: TK-10
[12] = test system: SF-268
[13] = test system: RXF 393
[14] = test system: HCC 2998
[15] = test system: OVCAR-5
[16] = test system: MOLT-4
[17] = test system: OVCAR-4
[18] = test system: SR
[19] = test system: SK-MEL-28
[20] = test system: MDA-N

Measured: GI50

Clc1ccc2c(SCC3CO3)c3ccccc3nc2c1 (centres undefined)
inactive: [1] 6.25 µM | [2] 1.73 µM | [3] 5.43 µM | [4] 2.25 µM | [5] 1.66 µM | [6] 1.87 µM | [7] 1.57 µM | [8] 7.31 µM | [9] 2.13 µM | [10] 2.49 µM | [11] 1.74 µM | [12] 3.18 µM | [13] 2.66 µM | [14] 4.81 µM | [15] 4.36 µM | [16] 1.85 µM | [17] 3.87 µM | [18] 2.04 µM | [19] 2.88 µM

[O-][S+](Cc1ccccc1)c1ccccc1Cn1cccc1 (centres undefined)
inactive: [1] > 100 µM | [2] > 100 µM | [3] > 100 µM | [4] > 100 µM | [5] > 100 µM | [6] 71.1 µM | [7] > 100 µM | [8] > 100 µM | [9] > 100 µM | [10] > 100 µM | [11] > 100 µM | [12] > 100 µM | [13] 42.8 µM | [14] > 100 µM | [15] > 100 µM | [17] 41.9 µM | [18] 23 µM | [19] > 100 µM

Cc1ccc(NC(=O)c2cc(S(=O)(=O)Nc3n[nH]c(=O)[nH]3)c(SSc3cc(Cl)c(C(=O)Nc4ccc(C)cc4)cc3S(=O)(=O)Nc3n[nH]c(=O)[nH]3)cc2Cl)cc1
inactive: [1] > 100 µM | [2] > 100 µM | [3] > 100 µM | [4] > 100 µM | [20] > 100 µM | [6] > 100 µM | [8] > 100 µM | [10] > 100 µM | [11] > 100 µM | [12] > 100 µM | [14] > 100 µM | [15] > 100 µM | [16] > 100 µM | [17] > 100 µM | [18] > 100 µM | [19] > 100 µM

O=C1C=C/C(=N/c2ccccc2)c2ccccc21
inactive: [1] 11.2 µM | [2] 1.89 µM | [3] 21.8 µM | [4] 4.18 µM | [5] 16.2 µM | [6] 12.5 µM | [7] 1.68 µM | [8] 7.38 µM | [9] 15.1 µM | [10] 2.64 µM | [11] 16.9 µM | [12] 11.3 µM | [13] 10.8 µM | [14] 10.2 µM | [15] 17.9 µM | [16] 5.41 µM | [17] 11.9 µM | [18] 11.4 µM | [19] 20.3 µM

N/N=C(\N)SCCCCCCCCCCS/C(N)=N/N
inactive: [1] 40.5 µM | [2] 19.7 µM | [3] 40.7 µM | [4] 11.5 µM | [5] 5.57 µM | [6] 15.1 µM | [7] 20.9 µM | [8] 18 µM | [9] 29.6 µM | [10] 30.1 µM | [11] 20.3 µM | [12] 30.3 µM | [14] 22.4 µM | [15] 45.4 µM | [18] 13.2 µM | [19] 37.8 µM

CCCC(=O)OC1C(CO)OC(n2cc(F)c(=O)[nH]c2=O)C1F (centres undefined)
inactive: [1] 4.5 µM | [2] 54.6 µM | [4] > 100 µM | [5] > 100 µM | [7] 17.3 µM | [8] > 100 µM | [9] 1.67 µM | [10] > 100 µM | [11] > 100 µM | [13] > 100 µM | [15] > 100 µM | [16] > 100 µM | [17] 60.5 µM | [18] 5.41 µM | [19] > 100 µM

CN(C)CC1CCC(CN(C)C)C1=O (centres undefined)
active: [6] 0.418 µM | [16] 0.594 µM
inactive: [1] > 52.5 µM | [2] 3.81 µM | [3] > 100 µM | [4] 4.54 µM | [20] 2.01 µM | [5] 1.39 µM | [8] 18.7 µM | [9] 18.4 µM | [10] 8.34 µM | [11] 14.7 µM | [12] 19.5 µM | [13] 4.19 µM | [14] 18 µM | [15] 9.73 µM | [17] 5.32 µM | [18] 2.6 µM | [19] 8.65 µM

CCCCCCCCCCCCCC1CCC(CC)N1 (centres undefined)
inactive: [1] 7.1 µM | [2] 16.2 µM | [3] 16.9 µM | [4] 17.5 µM | [6] 14.8 µM | [8] 20.8 µM | [9] 17.6 µM | [10] 20.7 µM | [11] 17.7 µM | [12] 8.81 µM | [13] 17.9 µM | [14] 2.41 µM | [15] 16.6 µM | [16] 11.9 µM | [17] 17.4 µM | [18] 18.9 µM | [19] 7.66 µM

CSC1=C(C#N)C(=O)N(c2ccc(C)cc2)C(=S)C1C#N (centres undefined)
inactive: [1] > 100 µM | [3] > 100 µM | [4] > 100 µM | [20] > 100 µM | [6] > 100 µM | [8] > 100 µM | [9] > 100 µM | [10] > 100 µM | [11] > 100 µM | [12] > 100 µM | [13] > 100 µM | [14] > 100 µM | [15] > 100 µM | [16] > 100 µM | [17] > 100 µM | [19] > 100 µM

Brc1ccc(C2=NCSC(c3ccc(Br)cc3)=N2)cc1
inactive: [1] 39.1 µM | [3] 31.8 µM | [4] 25.4 µM | [20] 20.1 µM | [6] 31 µM | [8] 32.3 µM | [9] 31.5 µM | [10] 19.1 µM | [11] 17.6 µM | [12] 53.3 µM | [13] 8.53 µM | [14] 23 µM | [15] 76 µM | [16] 16.1 µM | [17] 41.9 µM | [18] 22.2 µM | [19] 46.5 µM

CC(=O)OCc1ccc2c(c1)C(O)NC(=O)O2 (centres undefined)
inactive: [1] > 100 µM | [2] 21.8 µM | [3] > 100 µM | [4] 47.2 µM | [5] 34.6 µM | [6] 31 µM | [7] > 100 µM | [8] > 100 µM | [9] > 100 µM | [10] > 100 µM | [11] > 100 µM | [12] > 100 µM | [13] > 100 µM | [15] > 100 µM | [16] 12.8 µM | [17] 93.1 µM | [18] 10.4 µM | [19] > 100 µM

[O-][N+]1=NC(c2ccccc2)=C1c1ccccc1
inactive: [1] > 50 µM | [2] > 50 µM | [3] > 50 µM | [4] > 50 µM | [20] > 50 µM | [6] > 50 µM | [7] > 50 µM | [8] > 50 µM | [9] > 50 µM | [10] > 50 µM | [11] > 50 µM | [12] > 50 µM | [13] > 50 µM | [15] > 50 µM | [16] > 50 µM | [17] > 50 µM | [19] > 50 µM

CC(C)(C)OC(=O)c1cnc(Cl)cn1
inactive: [1] > 100 µM | [3] 95.3 µM | [4] 23.8 µM | [5] 35.2 µM | [6] 28.4 µM | [7] 87.5 µM | [8] 69.7 µM | [9] > 100 µM | [10] 30.4 µM | [11] > 100 µM | [12] 55.5 µM | [15] 83.4 µM | [16] 27.3 µM | [17] 28.1 µM | [18] 45 µM | [19] 37.8 µM

CCOC(=O)c1cn2c(ccc3sc4ccccc4c(=O)c32)n1
inactive: [1] > 100 µM | [2] > 100 µM | [3] > 100 µM | [4] > 100 µM | [20] > 100 µM | [6] > 100 µM | [7] > 100 µM | [8] > 100 µM | [9] > 100 µM | [10] > 100 µM | [11] > 100 µM | [12] > 100 µM | [13] > 100 µM | [14] > 100 µM | [15] > 100 µM | [16] > 100 µM | [18] > 100 µM | [19] > 100 µM

Cc1c2cc[n+](C)cc2c(C)c2c1oc1ccccc12
inactive: [1] 2.06 µM | [2] 2.65 µM | [4] 11.4 µM | [20] 11 µM | [6] 6.38 µM | [7] 15.9 µM | [8] 1.95 µM | [9] 2.24 µM | [10] 4.29 µM | [11] 31.4 µM | [13] 15.2 µM | [14] 2.75 µM | [15] 15.6 µM | [16] 2.74 µM | [17] 7.14 µM | [18] 4.85 µM | [19] 6.85 µM
active: [3] 0.893 µM | [12] 0.406 µM

O=c1c(C(c2cc(OCc3ccccc3)cc(OCc3ccccc3)c2)c2c(O)oc3ccccc3c2=O)c(O)oc2ccccc12
inactive: [1] 10.3 µM | [2] 13.4 µM | [3] 3.74 µM | [4] 15.3 µM | [5] 8.55 µM | [6] 3.35 µM | [7] 6.35 µM | [8] 7.05 µM | [9] 5.86 µM | [10] 13 µM | [11] 11.5 µM | [12] 5.07 µM | [13] 22.4 µM | [14] 3.91 µM | [15] 11.8 µM | [16] 3.91 µM | [17] 4.97 µM | [18] 3.28 µM | [19] 12.7 µM
